Experimental data as given in patent US20240148821A1, “PHARMACEUTICAL USE OF CYCLIC PEPTIDE COMPOUND” (CHUGAI SEIYAKU KABUSHIKI KAISHA, priority 2021, published 2024).
Numbered stars: 1 amine (or outer) side, 2 acyl side, 3 side chain; on linkers, the order of the positions; unused ones are H or OH. Bridge positions count the residues as written; N and C are the ends. Square brackets hold non-standard residues; d marks the D form. Peptide text beside a SMILES is read from it. * marks the point of attachment. hPhe(3-Cl-4-CF3) = N[C@@H](CCc1ccc(C(F)(F)F)c(Cl)c1)C(=O)O; X49 = CN([C@@H](Cc1cccc(OC(F)(F)F)c1)C(=O)[*:2])[*:1]; NMePhe(3-CF3) = CN[C@@H](Cc1cccc(C(F)(F)F)c1)C(=O)O; NMePhe(3-Br) = CN[C@@H](Cc1cccc(Br)c1)C(=O)O; NMePhe(2-Cl) = CN[C@@H](Cc1ccccc1Cl)C(=O)O; NMePhe(3-F) = CN[C@@H](Cc1cccc(F)c1)C(=O)O; NMePhe(2-F) = CN[C@@H](Cc1ccccc1F)C(=O)O; NMeCha = CN[C@@H](CC1CCCCC1)C(=O)O; NMeGly(cPr) = CN[C@H](C(=O)O)C1CC1; NMeD = CN[C@@H](CC(=O)O)C(=O)O; NMeL = CN[C@@H](CC(C)C)C(=O)O; NMeV = CN[C@H](C(=O)O)C(C)C; d(β3hA) = C[C@@H](N)CC(=O)O; NMeA = CN[C@@H](C)C(=O)O; Piperidide = C1CCN(*)CC1; Ac5c = NC1(C(=O)O)CCCC1; Aze = O=C(O)[C@@H]1CCN1; Sar = CNCC(=O)O

Test system: Human pancreatic cancer cell line AsPC-1 (G12D mutation Kras)
Assay: AsPC-1 cell growth inhibition (AsPC-1 CGI)
Assay type: cell-based
Settings: read-out: AsPC-1 cell growth inhibition, 50% growth inhibitory concentration (IC50 value); 96 hours, CellTiter-Glo, values classified in ranges
Description: Test compounds were serially dilated with dimethyl sulfoxide, and 200 nL was then dispensed to a U-bottom 96-well plate using Labcyte Echo. […] The cell suspension was dispensed to a. plate containing a test compound at 100 μL per well and incubated at 37° C. in a 5% carbon dioxide gas incubator. 96 hours later, 80 μL of CellTiter-Glo (Promega) was added to each well and fluorescence was measured.

SMILES | IC50
CC[C@H](C)[C@@H]1NC(=O)[C@H](CC(C)C)N(C)C(=O)C[C@@H](C(=O)N2CCCCC2)N(C)C(=O)[C@H](C(C)C)N(C)C(=O)C2(CCCC2)NC(=O)[C@@H]2CCCN2C(=O)[C@H](CCc2ccc(C(F)(F)F)c(Cl)c2)NC(=O)CN(C)C(=O)[C@H](CC2CCCCC2)N(C)C(=O)[C@@H]2CCN2C(=O)[C@H](C2CC2)N(C)C1=O [Compound 1553] ([NMeL]I[NMeGly(cPr)][Aze][NMeCha][Sar][hPhe(3-Cl-4-CF3)]P[Ac5c][NMeV][NMeD]-Piperidide; lactam N-11) | > 500 nM
CC[C@H](C)[C@@H]1NC(=O)[C@H](CC(C)C)N(C)C(=O)C[C@@H](C)NC(=O)[C@H](C(C)C)N(C)C(=O)C2(CCCC2)NC(=O)[C@@H]2CCCN2C(=O)[C@H](CCc2ccc(C(F)(F)F)c(Cl)c2)NC(=O)CN(C)C(=O)[C@H](Cc2cccc(F)c2)N(C)C(=O)CN(C)C(=O)CN(C)C1=O [Compound 1556] (cyclo([Ac5c][NMeV][d(β3hA)][NMeL]I[Sar][Sar][NMePhe(3-F)][Sar][hPhe(3-Cl-4-CF3)]P)) | > 500 nM
CC[C@H](C)[C@@H]1NC(=O)[C@H](CC(C)C)N(C)C(=O)C[C@@H](C)NC(=O)[C@H](C(C)C)N(C)C(=O)C2(CCCC2)NC(=O)[C@@H]2CCCN2C(=O)[C@H](CCc2ccc(C(F)(F)F)c(Cl)c2)NC(=O)CN(C)C(=O)[C@H](Cc2cccc(OC(F)(F)F)c2)N(C)C(=O)CN(C)C(=O)CN(C)C1=O [Compound 1573] (cyclo([Ac5c][NMeV][d(β3hA)][NMeL]I[Sar][Sar][X49][Sar][hPhe(3-Cl-4-CF3)]P)) | > 500 nM
CC[C@H](C)[C@@H]1NC(=O)[C@H](CC(C)C)N(C)C(=O)C[C@@H](C)NC(=O)[C@H](C(C)C)N(C)C(=O)C2(CCCC2)NC(=O)[C@@H]2CCCN2C(=O)[C@H](CCc2ccc(C(F)(F)F)c(Cl)c2)NC(=O)CN(C)C(=O)[C@H](Cc2cccc(C(F)(F)F)c2)N(C)C(=O)CN(C)C(=O)CN(C)C1=O [Compound 1575] (cyclo([Ac5c][NMeV][d(β3hA)][NMeL]I[Sar][Sar][NMePhe(3-CF3)][Sar][hPhe(3-Cl-4-CF3)]P)) | > 500 nM
CC[C@H](C)[C@@H]1NC(=O)[C@H](C)N(C)C(=O)C[C@@H](C)NC(=O)[C@H](C(C)C)N(C)C(=O)C2(CCCC2)NC(=O)[C@@H]2CCCN2C(=O)[C@H](CCc2ccc(C(F)(F)F)c(Cl)c2)NC(=O)CN(C)C(=O)[C@H](CC2CCCCC2)N(C)C(=O)[C@@H]2CCN2C(=O)[C@H](C)N(C)C1=O [Compound 1578] (cyclo([Ac5c][NMeV][d(β3hA)][NMeA]I[NMeA][Aze][NMeCha][Sar][hPhe(3-Cl-4-CF3)]P)) | > 500 nM
CC[C@H](C)[C@@H]1NC(=O)[C@H](C)N(C)C(=O)C[C@@H](C(=O)N2CCCCC2)N(C)C(=O)[C@H](C(C)C)N(C)C(=O)C2(CCCC2)NC(=O)[C@@H]2CCCN2C(=O)[C@H](CCc2ccc(C(F)(F)F)c(Cl)c2)NC(=O)CN(C)C(=O)[C@H](CC2CCCCC2)N(C)C(=O)[C@@H]2CCN2C(=O)[C@H](CC2CCCCC2)N(C)C1=O [Compound 1580] ([NMeA]I[NMeCha][Aze][NMeCha][Sar][hPhe(3-Cl-4-CF3)]P[Ac5c][NMeV][NMeD]-Piperidide; lactam N-11) | > 500 nM
CC[C@H](C)[C@@H]1NC(=O)[C@H](CC(C)C)N(C)C(=O)C[C@@H](C)NC(=O)[C@H](C(C)C)N(C)C(=O)C2(CCCC2)NC(=O)[C@@H]2CCCN2C(=O)[C@H](CCc2ccc(C(F)(F)F)c(Cl)c2)NC(=O)CN(C)C(=O)[C@H](COc2ccccc2Cl)N(C)C(=O)CN(C)C(=O)CN(C)C1=O [Compound 1582] | > 500 nM
CC[C@H](C)[C@@H]1NC(=O)[C@H](CC(C)C)N(C)C(=O)C[C@@H](C)NC(=O)[C@H](C(C)C)N(C)C(=O)C2(CCCC2)NC(=O)[C@@H]2CCCN2C(=O)[C@H](CCc2ccc(C(F)(F)F)c(Cl)c2)NC(=O)CN(C)C(=O)[C@H](Cc2ccccc2F)N(C)C(=O)CN(C)C(=O)CN(C)C1=O [Compound 1585] (cyclo([Ac5c][NMeV][d(β3hA)][NMeL]I[Sar][Sar][NMePhe(2-F)][Sar][hPhe(3-Cl-4-CF3)]P)) | > 500 nM
CC[C@H](C)[C@@H]1NC(=O)[C@H](CC(C)C)N(C)C(=O)C[C@@H](C)NC(=O)[C@H](C(C)C)N(C)C(=O)C2(CCCC2)NC(=O)[C@@H]2CCCN2C(=O)[C@H](CCc2ccc(C(F)(F)F)c(Cl)c2)NC(=O)CN(C)C(=O)[C@H](Cc2cccc(Br)c2)N(C)C(=O)CN(C)C(=O)CN(C)C1=O [Compound 1587] (cyclo([Ac5c][NMeV][d(β3hA)][NMeL]I[Sar][Sar][NMePhe(3-Br)][Sar][hPhe(3-Cl-4-CF3)]P)) | > 500 nM
CC[C@H](C)[C@@H]1NC(=O)[C@H](CC(C)C)N(C)C(=O)C[C@@H](C)NC(=O)[C@H](C(C)C)N(C)C(=O)C2(CCCC2)NC(=O)[C@@H]2CCCN2C(=O)[C@H](CCc2ccc(C(F)(F)F)c(Cl)c2)NC(=O)CN(C)C(=O)[C@H](Cc2ccccc2Cl)N(C)C(=O)CN(C)C(=O)CN(C)C1=O [Compound 1591] (cyclo([Ac5c][NMeV][d(β3hA)][NMeL]I[Sar][Sar][NMePhe(2-Cl)][Sar][hPhe(3-Cl-4-CF3)]P)) | > 500 nM
